The source of these data is patent US6869971B1, “UCS1025 derivatives” (Kyowa Hakko Kogyo Co., Ltd., priority 1999, dated 2005).

Converted amounts (≈) assume the structure as drawn.

Common to all, as to type: cell-based
The subject of experiment [1] is Bacillus subtilis ATCC 10707. Nature of the experiment: Antibacterial activity (MIC), agar dilution method. To be noted: ATCC10707, read-out: minimum inhibitory concentration (MIC), BS. Here is the method:
(§1) Antibacterial activities (minimum inhibitory concentration (MIC: mg/ml)) of Compounds (I) on various bacteria are shown in Table 2. The antibacterial activity was measured by an agar dilution method using a medium comprising 3 g/L Bacto-Tryptone (manufactured by Difco), 3 g/L meat extract, 1 g/L yeast extract, 1 g/L glucose and 16 g/L agar.
A general note: In agar dilution the substance is mixed into plates at graded concentrations.

For experiment [2], the system named is Enteroccccus hirae ATCC 10541. The experiment can be described thus: Antibacterial activity (MIC), agar dilution method. To be noted: read-out: minimum inhibitory concentration (MIC), ER. The procedure:
as §1

Experiment [3] has as its system human renal carcinoma cell line ACHN. The experiment can be described thus: Growth inhibition action on human renal carcinoma cell line ACHN. The conditions noted are these: ACHN cells, 72 hours culture with compound, Cell proliferation kit II, read-out: IC50 (concentration inhibiting 50% of the cell growth). The procedure:
Cells of human renal carcinoma cell line ACHN adjusted to a density of 3×10^4 cells/ml with RPMI (Roswell Park Memorial Institute) medium comprising 10% fetal bovine serum and 2 mmol/l glutamine were dispensed in a volume of 50 μl into each well of a 96 well microtiter plate and cultured at 37° C. for 24 hours in a carbon dioxide incubator. Each of the test compounds serially diluted with the above medium was added to each well in a volume of 50 μl, following by culturing at 37° C. for 72 hours in a carbon dioxide incubator. After discarding the culture supernatant, each well was washed twice with 0.1 ml of phosphate buffered saline (PBS), and then 0.1 ml of the above medium was again added to each well. Cell proliferation kit II (Boehringer Mannheim) was used for the measurement of the number of cells in each well. After addition of a color-producing reagent and subsequent incubation at 37° C. for 3 hours in a carbon dioxide incubator, absorbance at 490 nm and 655 nm was measured using a microplate reader, and a value (differential absorbance) was calculated by subtracting the absorbance at 655 nm from the absorbance at 490 nm in each well. By comparing the differential absorbance obtained from untreated cells and that obtained from cells treated with a predetermined concentration of each test compound, the concentration of the test compound capable of inhibiting 50% of the cell growth was calculated and expressed as IC50.

With `COC(=O)[C@@H]1CCN2C(=O)C(C(=O)C3[C@H]4CCCC[C@@H]4C=C[C@@H]3C)=C[C@]12O` (stereo partly shown) [Compound 1], the MIC in experiment [1] and in experiment [2] was 520 µg/mL (≈ 1.39 mM) throughout. The IC50 in experiment [3] stood at 4.4 µM.

As to `CCN(CC)C(=O)[C@@H]1CCN2C(=O)C(C(=O)C3[C@H]4CCCC[C@@H]4C=C[C@@H]3C)=C[C@]12O` (stereo partly shown) [Compound 6], the MIC in experiment [1] turned out to be 1800 µg/mL (≈ 4.34 mM); in experiment [2], 3600 µg/mL (≈ 8.68 mM). Further, the IC50 in experiment [3] stood at 5.6 µM.

On to `CCCN(CCC)C(=O)[C@@H]1CCN2C(=O)C(C(=O)C3[C@H]4CCCC[C@@H]4C=C[C@@H]3C)=C[C@]12O` (stereo partly shown) [Compound 7], for which the MIC in experiment [1] is 1300 µg/mL (≈ 2.94 mM); in experiment [2] it was 5000 µg/mL (≈ 11.3 mM).

`CCCCN(CCCC)C(=O)[C@@H]1CCN2C(=O)C(C(=O)C3[C@H]4CCCC[C@@H]4C=C[C@@H]3C)=C[C@]12O` (stereo partly shown) [Compound 8]: the MIC in experiment [1] turned out to be 380 µg/mL (≈ 0.807 mM); in experiment [2], 1500 µg/mL (≈ 3.19 mM). The IC50 in experiment [3] is 2.7 µM.

With `CCS[C@@H]1[C@H](C(=O)C2[C@H]3CCCC[C@@H]3C=C[C@@H]2C)C(=O)N2CC[C@@H](C(=O)N(CC)CC)[C@@]12O` (stereo partly shown) [Compound 12], the IC50 in experiment [3] turned out to be 5.7 µM.

For the molecule `C[C@H]1C=C[C@H]2CCCC[C@@H]2C1C(=O)C1Cc2cccn2C1=O` (stereo partly shown) [Compound 16], the IC50 in experiment [3] was found to be 64 µM.

Turning to `C[C@H]1C=C[C@H]2CCCC[C@@H]2C1C(=O)[C@@]1(Br)C(=O)N2CC[C@H]3C(=O)O[C@@H]1[C@]32O` (stereo partly shown) [Compound 32], the MIC in experiment [1] and in experiment [2] was 13000 µg/mL (≈ 29.7 mM) in each case.

With `C=CCOC(=O)[C@@H]1CCN2C(=O)C3(C(=O)C4[C@H]5CCCC[C@@H]5C=C[C@@H]4C)O[C@@H]3[C@]12O` (stereo partly shown) [Compound 36], the MIC in experiment [1] and in experiment [2] was 48000 µg/mL (≈ 116 mM) throughout.

For `CCN(CC)C(=O)[C@@H]1CCN2C(=O)C3(C(=O)C4[C@H]5CCCC[C@@H]5C=C[C@@H]4C)O[C@@H]3[C@]12O` (stereo partly shown) [Compound 38], the MIC was 16000 µg/mL (≈ 37.2 mM) in experiment [1] and 8100 µg/mL (≈ 18.8 mM) in experiment [2].
